Laboratory results published in article PMC7366784 (Medical Science Monitor : International Medical Journal of …, 2020).

What was measured:
C. trachomatis = conditions: added to the replication phase of developmental cycle; cited from earlier work
recombinant cHtrA = format: in vitro ADME, C. trachomatis serovar D; conditions: AMP 100 μg/mL, cHtrA 100 μg/mL, 37°C, 30 min; Coomassie blue staining
[1] = system: MT-H143A (recombinant cHtrA mutant); format: in vitro ADME, C. trachomatis serovar D; conditions: AMP 100 μg/mL, mutant 100 μg/mL, 37°C, 30 min
[2] = system: MT-S247A (recombinant cHtrA mutant); format: in vitro ADME, C. trachomatis serovar D; conditions: AMP 100 μg/mL, mutant 100 μg/mL, 37°C, 30 min

Structure (SMILES) | Effect on C. trachomatis (C. trachomatis) | Degradation of AMP by 100 μg/mL recombinant cHtrA (recombinant cHtrA) | Degradation of AMP by MT-H143A [1] | Degradation of AMP by MT-S247A [2]
CC(C)C(NC(=O)[C@@H]1CCCN1C(=O)[C@@H](NC(=O)OC(C)(C)C)C(C)C)P(=O)(Oc1ccccc1)Oc1ccccc1 (stereo partly shown) [JO146] | lethal to C. trachomatis |  |  | 
CC[C@H](C)[C@H](NC(=O)[C@H](CCCCN)NC(=O)[C@H](CCC(=O)O)NC(=O)[C@H](CCCCN)NC(=O)[C@H](CO)NC(=O)[C@H](CCCCN)NC(=O)[C@H](CCCNC(=N)N)NC(=O)[C@H](Cc1ccccc1)NC(=O)[C@H](Cc1ccccc1)NC(=O)[C@H](CC(=O)O)NC(=O)CNC(=O)[C@H](CC(C)C)NC(=O)[C@@H](N)CC(C)C)C(=O)NCC(=O)N[C@@H](CCCCN)C(=O)N[C@@H](CCC(=O)O)C(=O)N[C@@H](Cc1ccccc1)C(=O)N[C@@H](CCCCN)C(=O)N[C@@H](CCCNC(=N)N)C(=O)N[C@H](C(=O)N[C@H](C(=O)N[C@@H](CCC(N)=O)C(=O)N[C@@H](CCCNC(=N)N)C(=O)N[C@H](C(=O)N[C@@H](CCCCN)C(=O)N[C@@H](CC(=O)O)C(=O)N[C@@H](Cc1ccccc1)C(=O)N[C@@H](CC(C)C)C(=O)N[C@@H](CCCNC(=N)N)C(=O)N[C@@H](CC(N)=O)C(=O)N[C@@H](CC(C)C)C(=O)N[C@H](C(=O)N1CCC[C@H]1C(=O)N[C@@H](CCCNC(=N)N)C(=O)N[C@H](C(=O)N[C@@H](CCC(=O)O)C(=O)N[C@@H](CO)C(=O)O)[C@@H](C)O)C(C)C)[C@@H](C)CC)C(C)C)[C@@H](C)CC [LL-37] |  | degraded all LL-37 | unable to degrade LL-37 | unable to degrade LL-37
